Data reported in article PMC7979765, “trans-Translation inhibitors bind to a novel site on the ribosome and clear Neisseria gonorrhoeae in vivo” (Nature Communications, 2021).
≈ marks a conversion by molar mass, not a printed value. Where “and” joins values, the source holds several entries; their conditions need not be identical. Equal values may be shown once. Read-outs that look alike come from different tables or passages of the source.

Assays:
[1] = Mammalian cell cytotoxicity (CC50); format: cell-based, human; details: human, HeLa cells (ATCC CCL-2)
Experimental: (§1) The half maximal cytotoxic concentration (CC50) of each compound against HeLa cells (ATCC CCL-2) was measured as previously described. […] The mean values for each biological replicate were averaged, and the CC50 was determined using a 4-parameter nonlinear curve fitting algorithm (GraphPad Prism). The average of the CC50s from two biological replicates was calculated and reported.

HeLa cells = test: Mammalian cell cytotoxicity (CC50); format: cell-based, human; details: for NORMALIZED DATA (Fraction DMSO Control) / […] (Fraction DMSO Control): HeLa, per replicate
Experimental: as §1

Klebsiella pneumoniae = test: MIC, microbroth dilution; format: cell-based
Staphylococcus aureus = test: MIC, microbroth dilution; format: cell-based
[2] = Pharmacokinetic analyses in mice (PO suspension, IV, SC); format: in vivo, mouse
Experimental: Female CD-1 mice as above were fasted for 2 h prior, and 4 h after dosing. […] […], 3 mice from each group were euthanized by CO2 inhalation, blood was collected by cardiac puncture into K2EDTA collection tubes, and protein was precipitated and analysed by LC/MS-MS for plasma concentrations of MBX-4132. Data were analysed using WinNonLin.
[…] At 0.083, 0.5, 1, 4, 8 and 24 h post dose, blood was collected from 3 mice/group by tail vein or facial bleed into K2EDTA collection tubes, and protein was precipitated and analysed by LC/MS-MS for plasma concentrations of MBX-4132. Sampling was performed serially, with each mouse contributing sample at all time points. Data were analysed using WinNonLin.

[3] = HeLa cytotoxicity, value per replicate

With O=C(Nc1nnc(-c2ccc(F)cc2)o1)N1CCc2ccccc2C1 [MBX-4132] as the compound, how does the CC50 [1, 3] read?
Its CC50 is 22.2 µM.

And the CC50 ([1]; half-maximal cytotoxic concentration against HeLa cells)?
Its CC50 is 45 µM.

And the CC50 (HeLa cells; [3])?
Its CC50 is 40.1 µM and 36.3 µM and 20.1 µM and 22.1 µM and 22.6 µM.

What about the “NORMALIZED DATA (Fraction DMSO Control)” value (HeLa cells; [CMPD] 0.78125 µM) of the same compound?
The value was 0.9968 Fraction DMSO Control and 1.046 Fraction DMSO Control and 1.033 Fraction DMSO Control and 0.9287 Fraction DMSO Control and 0.9308 Fraction DMSO Control and 0.9008 Fraction DMSO Control.

What about the “NORMALIZED DATA (Fraction DMSO Control)” value (HeLa cells; [CMPD] 1.5625 µM) of the same compound?
Its value is 0.97 Fraction DMSO Control and 0.9994 Fraction DMSO Control and 0.9978 Fraction DMSO Control and 0.9354 Fraction DMSO Control and 0.9201 Fraction DMSO Control and 0.9227 Fraction DMSO Control.

What about the “NORMALIZED DATA (Fraction DMSO Control)” value (HeLa cells; [CMPD] 3.125 µM) of the same compound?
The value was 0.9272 Fraction DMSO Control and 0.9885 Fraction DMSO Control and 0.9744 Fraction DMSO Control and 0.9295 Fraction DMSO Control and 0.9174 Fraction DMSO Control and 0.8829 Fraction DMSO Control.

What about the “NORMALIZED DATA (Fraction DMSO Control)” value (HeLa cells; [CMPD] 6.25 µM) of the same compound?
Its value is 0.9057 Fraction DMSO Control and 0.9944 Fraction DMSO Control and 0.9769 Fraction DMSO Control and 0.8719 Fraction DMSO Control and 0.9166 Fraction DMSO Control and 0.9146 Fraction DMSO Control.

What about the “NORMALIZED DATA (Fraction DMSO Control)” value (HeLa cells; [CMPD] 12.5 µM) of the same compound?
The value was 0.7347 Fraction DMSO Control and 0.9472 Fraction DMSO Control and 1.04 Fraction DMSO Control and 0.6999 Fraction DMSO Control and 0.7003 Fraction DMSO Control and 0.7354 Fraction DMSO Control.

And the “NORMALIZED DATA (Fraction DMSO Control)” value (HeLa cells; [CMPD] 25 µM)?
The value was 0.4205 Fraction DMSO Control and 0.7028 Fraction DMSO Control and 0.4452 Fraction DMSO Control and 0.4899 Fraction DMSO Control and 0.486 Fraction DMSO Control.

What about the “[…] (Fraction DMSO Control)” value (HeLa cells; [CMPD] 25 µM) of the same compound?
The value was 0.7319 Fraction DMSO Control.

What about the “NORMALIZED DATA (Fraction DMSO Control)” value (HeLa cells; [CMPD] 50 µM) of the same compound?
Its value is 0.4043 Fraction DMSO Control and 0.3802 Fraction DMSO Control and 0.2112 Fraction DMSO Control and 0.1979 Fraction DMSO Control.

And the “[…] (Fraction DMSO Control)” value (HeLa cells; [CMPD] 50 µM)?
The value was 0.2642 Fraction DMSO Control and 0.1957 Fraction DMSO Control.

And the “NORMALIZED DATA (Fraction DMSO Control)” value (HeLa cells; [CMPD] 100 µM)?
The value was 0.2429 Fraction DMSO Control and 0.2248 Fraction DMSO Control and 0.2297 Fraction DMSO Control.

And the “[…] (Fraction DMSO Control)” value (HeLa cells; [CMPD] 100 µM)?
The value was 0.1038 Fraction DMSO Control and 0.3131 Fraction DMSO Control and 0.2661 Fraction DMSO Control.

What about the MIC (Klebsiella pneumoniae; Klebsiella pneumoniae ATCC 13883, replicates) of the same compound?
The MIC was ≥34 µg/mL.

What about the MIC (Klebsiella pneumoniae; Klebsiella pneumoniae, ATCC13883, strain ATCC 13883, read-out: MIC) of the same compound?
The MIC was ≥ 34 µg/mL.

And the MIC (Staphylococcus aureus; Staphylococcus aureus ATCC 25923, replicates)?
The MIC was 8.46 µg/mL (≈ 25 µM).

And the MIC (Staphylococcus aureus; Staphylococcus aureus ATCC 35556, replicates)?
Its MIC is 4.23 µg/mL (≈ 12.5 µM).

And the MIC (Staphylococcus aureus; Staphylococcus aureus BAA-1717, replicates)?
The MIC was 1 µg/mL (≈ 2.96 µM).

What about the MIC (Staphylococcus aureus; Staphylococcus aureus MRSA-1094, replicates) of the same compound?
Its MIC is 2.11 µg/mL and 4.23 µg/mL.

What about the MIC (Staphylococcus aureus; Staphylococcus aureus MRSA-1234547263, replicates) of the same compound?
The MIC was 2.11 µg/mL and 4.23 µg/mL.

What about the MIC (Staphylococcus aureus; Staphylococcus aureus MSSA, replicates) of the same compound?
Its MIC is 2.11 µg/mL and 4.23 µg/mL.

What about the MIC (Staphylococcus aureus; Staphylococcus aureus N315, NRS-70, replicates) of the same compound?
Its MIC is 8.46 µg/mL (≈ 25 µM).

What about the MIC (Staphylococcus aureus; Staphylococcus aureus NRS-77, replicates) of the same compound?
Its MIC is 2.11 µg/mL and 4.23 µg/mL.

And the MIC (Staphylococcus aureus; Staphylococcus aureus THC1516, replicates)?
The MIC was 0.5 µg/ml (3×) and 1 µg/ml (2×).

And the MIC (Staphylococcus aureus; Staphylococcus aureus, ATCC25923, Staphylococcus aureus ATCC 25923, replicates, read-out: MIC)?
The MIC was 4.23 µg/mL (≈ 12.5 µM).

And the MIC (Staphylococcus aureus; Staphylococcus aureus, ATCC25923, strain ATCC 25923, read-out: MIC)?
The MIC was 6.3 µg/mL (≈ 18.6 µM).

What about the MIC (Staphylococcus aureus; Staphylococcus aureus, ATCC35556, Staphylococcus aureus ATCC 35556, replicates, read-out: MIC) of the same compound?
Its MIC is 4.23 µg/mL (≈ 12.5 µM).

And the MIC (Staphylococcus aureus; Staphylococcus aureus, ATCC35556, strain ATCC 35556, read-out: MIC)?
Its MIC is 4.2 µg/mL (≈ 12.4 µM).

And the MIC (Staphylococcus aureus; Staphylococcus aureus, BAA1717, Staphylococcus aureus BAA-1717, replicates, read-out: MIC)?
Its MIC is 1 µg/mL (≈ 2.96 µM).

What about the MIC (Staphylococcus aureus; Staphylococcus aureus, BAA-1717 / MRSA, strain BAA-1717, MRSA, read-out: MIC) of the same compound?
The MIC was 1 µg/mL (≈ 2.96 µM).

What about the MIC (Staphylococcus aureus; Staphylococcus aureus, MRSA / NRS 70, strain N315, NRS-70, MRSA, read-out: MIC) of the same compound?
The MIC was 6.3 µg/mL (≈ 18.6 µM).

And the MIC (Staphylococcus aureus; Staphylococcus aureus, MRSA, strain MRSA-1094, MRSA, read-out: MIC)?
The MIC was 3.2 µg/mL (≈ 9.46 µM).

What about the MIC (Staphylococcus aureus; Staphylococcus aureus, MRSA, strain MRSA-1234547263, MRSA, read-out: MIC) of the same compound?
Its MIC is 3.2 µg/mL (≈ 9.46 µM).

And the MIC (Staphylococcus aureus; Staphylococcus aureus, MRSA, strain THC1516, MRSA, read-out: MIC)?
The MIC was 1 µg/mL (≈ 2.96 µM).

What about the MIC (Staphylococcus aureus; Staphylococcus aureus, MSSA, strain MSSA, read-out: MIC) of the same compound?
The MIC was 3.2 µg/mL (≈ 9.46 µM).

And the MIC (Staphylococcus aureus; Staphylococcus aureus, NRS70, Staphylococcus aureus N315, NRS-70, replicates, read-out: MIC)?
The MIC was 4.23 µg/mL (≈ 12.5 µM).

What about the MIC (Staphylococcus aureus; Staphylococcus aureus, NRS77, strain NRS-77, read-out: MIC) of the same compound?
The MIC was 3.2 µg/mL (≈ 9.46 µM).

What about the MIC (Staphylococcus aureus; Staphylococcus aureus, Staphylococcus aureus THC1516, replicates, read-out: MIC) of the same compound?
The MIC was 0.5 µg/mL (≈ 1.48 µM).

What about the “oral bioavailability (in words)” value ([2]; mice) of the same compound?
Its value is “highly orally bioavailable”.

And the “exposure in fasted vs fed mice (in words)” value ([2]; plasma at 1 and 4 h post dosing, formulation A)?
Its value is “No significant variation in exposure”.
